Data from patent US10391070B2, “Compositions and methods for treating neurological diseases or injury” (MUSC FOUNDATION FOR RESEARCH DEVELOPMENT, priority 2012, dated 2019).
Where two headings read alike, the source gives them in different places.

Assays:
[1] = system: HT22 cells; assay: In vitro neurotoxicity without glutamate (MTS cell viability); format: cell-based, mouse; settings: for Safety Index TC50/PC50: HT22 cells
Procedure: The HT22 neuronal cell line is a subclone of HT4, derived from the mouse hippocampus (Morimoto and Koshland, 1990). […] HT22 cells were used. The cells were grown in Dulbecco's Modified Eagle's medium (DMEM/high glucose) supplemented with 10% fetal bovine serum (Hyclone) and 5 mL Antibiotic-Antimycotic (Amphotericin B, Penicillin, and Streptomycin; Invitrogen) at 37° C. in 5% CO2.
Cell viability was assessed by the ability of the viable cells to metabolize 3-(4,5-dimethylthiazol-2-yl)-5-(3-carboxymethoxyphenyl)-2(4-sulfophenyl)2-H-tetrazolium, inner salt (MTS), as described previously (Cory et al., 1991). The metabolism of tetrazolium salts is often used to measure cellular proliferation, but in the system used here, it has been previously shown to correlate well with cell viability as determined by trypan blue exclusion and colony-forming assays (Davis and Maher, 1994). Briefly, HT-22 cells were seeded onto 96-well plates at 5.0×10^3 cells per well in 75 μL of medium and maintained at 37° C. in 5% CO2 overnight prior to the initiation of experimental treatments. For glutamate toxicity testing, cells were subsequently treated with 25 μL of medium containing glutamate (monosodium glutamate, Sigma, 1 M stock concentration in media, to achieve a final concentration of 10 mM) plus inhibitors (stock in DMSO) and maintained at 37° C. in 5% CO2. For t-BuOOH toxicity testing, cells were subsequently treated with 25 μL of medium containing t-BuOOH (Sigma, 10 mM stock concentration, to achieve a final concentration of 50 μM) plus inhibitors (stock in DMSO) and maintained at 37° C. in 5% CO2 for 3 hours, after which the media was removed, cells washed gently with HBSS, the media replaced with standard culture media, and the cells returned to incubation at 37° C. in 5% CO2. For both glutamate and t-BuOOH treatments, 10 μl of MTS solution was added to each well 24 hrs after initial treatment, and the cells were maintained in growth medium for 2 h at 37° C. Absorbance at 490 nm was subsequently measured by a SpectraMax 190 plate reader (Molecular Devices). The growth medium without cells in the presence of MTS solution was used as solution background and untreated cells were considered the controls. Cell viability was calculated as a percentage compared with untreated controls. EC50 determinations were based on 12-point titrations using GraphPad Prism, and each experiment was repeated at least four times. Morphology of HT22 cells following treatments was determined by phase-contrast microscopy. Digital images of cells grown on cell culture plates were captured at 10× magnification.

[2] = system: minimal clonic seizures (6 Hz); assay: Minimal clonic seizure (6 Hz) test; format: in vivo, mouse; settings: mice; for animals protected/animals tested, 0.25 h / animals protected/animals tested, 0.5 h / animals protected/animals tested, 1.0 h / animals protected/animals tested, 2.0 h / animals protected/animals tested, 4.0 h: 6 Hz
Procedure: Mouse studies were performed by NIH Anticonvulsant Screening Program at the National Institute of Neurological Disorders and Stroke (Stables and Kupferberg, 1997) according to the established NIH experimental procedures outlined below. Compounds were delivered into mice by i.p. injection at a dose of 100 mg/kg in sterile 5% DMSO, 95% Neobee (Josey et al., 2013). One of four methods for seizure induction was subsequently administered to mice at 0.25, 0.5, 1, 2 and 4 h after treatment with compound. (1) Subcutaneous PTZ seizure threshold test. PTZ was administered at a concentration of 85 mg/kg, into the loose fold of skin in the midline of the neck. […] (2) Maximal electroshock test. 60 Hz of 50 mA alternating current was delivered for 0.2 s by corneal electrodes. Mice were considered protected from seizures when the hindlimb tonic extensor was absent (White et al., 1995). (3) Minimal clonic seizure (6 Hz) test. 6 Hz of 32 mA or 44 mA alternating current was delivered for 3 s by corneal electrodes to elicit a psychomotor seizure. Mice were considered protected from seizures when the automatistic behaviors were absent (Barton et al., 2001). (4) Corneal kindled mouse model. Mice were kindled electrically with a 3 s stimulation, 8 mA, 60 Hz, and corneal electrodes to a criterion of 10 consecutive Stage 5 seizures (facial clonus and head nodding progressing to forelimb clonus, and finally rearing and falling accompanied by a generalized clonic seizure as described by Racine, 1972). Animals generally reach Stage 5 after twice daily stimulation for 8 days. With continued stimulation once a day, animals usually progressed to a reproducible Stage 5 after 10-14 additional days. At least 72 hours after the mice were kindled, the test substance was administered i.p. and each animal was given the electrical stimulus indicated above. […] Treated animals not displaying a Stage 4 or 5 seizure were considered protected.
6 Hz of 32 mA or 44 mA alternating current was delivered for 3 s by corneal electrodes to elicit a psychomotor seizure. Mice were considered protected from seizures when the automatistic behaviors were absent (Barton et al., 2001). Pre-administration of test compounds (100 mg/kg) to mice via i.p. injection protects against minimal clonic seizures (6 Hz). The data for each treatment is represented as the number of animals protected/number of animals tested.
The minimal clonic seizure (6 Hz) test is generally used to assess a agent's efficacy against electrically-induced seizures but uses a lower frequency (6 Hz) and longer duration of stimulation (3s) shock. Test compounds are pre-administered to mice via i.p. injection. Individual mice are challenged with sufficient current delivered through corneal electrodes to elicit a psychomotor seizure in 97% of animals (32 mA for 3s). Untreated mice will display seizures characterized by a minimal clonic phase followed by stereotyped, automatistic behaviors described originally as being similar to the aura of human patients with partial seizures. Animals not displaying this behavior are considered protected. Animals may also be evaluated using stimulation of 22 or 44 mA.

[3] = HT22 cells without glutamate, 24 hrs, MTS, concentration producing 50% toxicity, read-out: Toxicity TC50

Molecule | Safety Index TC50/PC50 [1] | CC50 [1, 3] | animals protected/animals tested, 0.25 h ([2]; 100 mg/kg i.p., 32 mA) | animals protected/animals tested, 0.5 h ([2]; 100 mg/kg i.p., 32 mA) | animals protected/animals tested, 1.0 h ([2]; 100 mg/kg i.p., 32 mA) | animals protected/animals tested, 2.0 h ([2]; 100 mg/kg i.p., 32 mA) | animals protected/animals tested, 4.0 h ([2]; 100 mg/kg i.p., 32 mA) | protection against 6 Hz seizures ([2]; 100 mg/kg i.p., 32 mA, 0.25 h) | anticonvulsant activity in minimal clonic (6 Hz) test ([2]; 32 mA) | protection in 6 Hz model at 44 mA ([2]; 44 mA) | CC50 [1] | cellular toxicity [1]
C#CCNC1=CC(=O)c2ccccc2C1=O [Compound 2h, 2-(prop-2-yn-1-ylamino)naphthalene-1,4-dione] | 442 | 53 µM | 4/4 | 2/4 | 1/4 | 1/4 | 0/4 | 100% | good anticonvulsant activity | did not result in any protection | – | –
O=C1C=C(NCc2ccccc2)C(=O)c2ccccc21 [Compound 2j, 2-(benzylamino)naphthalene-1,4-dione] | 1,136 | > 100 µM | 0/4 | 0/4 | 1/4 | 1/4 | 1/4 | – | good anticonvulsant activity | – | – | –
O=C1C=C(NCc2cccc(Cl)c2)C(=O)c2ccccc21 [Compound 2q, 2-((3-chlorobenzyl)amino)naphthalene-1,4-dione] | 3,226 | > 100 µM | 1/4 | 0/4 | 1/4 | 0/4 | 0/4 | – | good anticonvulsant activity | – | – | –
CC1=CC(=O)c2ccccc2C1=O [VK3, menadione, reference compound] | 24 | 19 µM | – | – | – | – | – | – | – | – | – | –
menaquinones [VK2, reference compound] | 231 | – | – | – | – | – | – | – | – | – | > 100 µM | neither exhibited any signs of cellular toxicity
